Legend:
Details in all cases: 48 h
NOMO1 [1] = experiment: cell viability relative to DMSO control; higher = less cytotoxic
How it was run: (§1)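 Viability, reported as a per-plate percentage of DMSO wells with cell-free wells as background, came from CellTiter-Glo One luminescence. Reading took place after 48 h at 37°C. Before that, NOMO1 or SEM (500 cells/well) or P12-Ichikawa (1000 cells/well) leukemia cells, adapted for at least four passages in each medium, were seeded in 1536-well plates (5 μl) and pin-dosed with library compounds in DMSO, 47 μM to 0.79 nM over 11 threefold points.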

P12-Ichikawa [2] = experiment: as above
How it was run: as §1

SEM cells [3] = experiment: as above
How it was run: as §1

NOMO1 [4] = experiment: AUC of viability dose-response curve (% viability x log10 dose units); higher = less sensitive
How it was run: (§2)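 Seeding of medium-adapted leukemia cells was at 500 or 1000 cells/well in 1536-well plates, followed by 48 h at 37°C with library compounds in DMSO at 11 threefold doses from 47 μM to 0.79 nM. CellTiter-Glo One luminescence was normalised per plate to DMSO and cell-free wells and fitted as a four-parameter log-logistic function of log10 dose. Area under the curve was integrated by trapezoidal rule, with curves exceeding full viability scaled and curves failing quality control removed.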

P12-Ichikawa [5] = experiment: as above
How it was run: as §2

SEM cells [6] = experiment: as above
How it was run: as §2

CC(C)(C)c1cc(C(=O)O)c(NC(=O)Nc2ccc3[nH]ncc3c2)s1
cell viability [%]
Details | NOMO1 [1] | P12-Ichikawa [2] | SEM cells [3]
HPLM + 10% dialyzed FBS, 0.000781 µM | 98.5 | 93.9 | 95.4
HPLM + 10% dialyzed FBS, 0.00234 µM | 106 | 102 | 97.5
HPLM + 10% dialyzed FBS, 0.00702 µM | 101 | 88.8 | 89.6
HPLM + 10% dialyzed FBS, 0.0211 µM | 90.7 | 97.4 | 101
HPLM + 10% dialyzed FBS, 0.0632 µM | 91.1 | 91.7 | 100
HPLM + 10% dialyzed FBS, 0.19 µM | 86.6 | 91.5 | 70.7
HPLM + 10% dialyzed FBS, 0.569 µM | 90.5 | 85.9 | 100
HPLM + 10% dialyzed FBS, 1.71 µM | 93.9 | 89.6 | 98.6
HPLM + 10% dialyzed FBS, 5.12 µM | 98.8 | 89.9 | 85.9
HPLM + 10% dialyzed FBS, 15.4 µM | 77.2 | 85.5 | 93.1
HPLM + 10% dialyzed FBS, 46.1 µM | 74.3 | 80.6 | 82.2
RPMI 5 mM glucose + 10% FBS, 0.000781 µM | 85.9 | 92.9 | 112
RPMI 5 mM glucose + 10% FBS, 0.00234 µM | 93.1 | 90.5 | 93.2
RPMI 5 mM glucose + 10% FBS, 0.00702 µM | 86.6 | 92.4 | 94.2
RPMI 5 mM glucose + 10% FBS, 0.0211 µM | 90.2 | 97.8 | 107
RPMI 5 mM glucose + 10% FBS, 0.0632 µM | 89.9 | 91.4 | 101
RPMI 5 mM glucose + 10% FBS, 0.19 µM | 92.3 | 98.4 | 90.8
RPMI 5 mM glucose + 10% FBS, 0.569 µM | 91.5 | 87.9 | 111
RPMI 5 mM glucose + 10% FBS, 1.71 µM | 83.9 | 79.6 | 104
RPMI 5 mM glucose + 10% FBS, 5.12 µM | 91.2 | 88.2 | 101
RPMI 5 mM glucose + 10% FBS, 15.4 µM | 77.3 | 84.7 | 93.1
RPMI 5 mM glucose + 10% FBS, 46.1 µM | 78 | 73.1 | 77.7
RPMI 5 mM glucose + 10% dialyzed FBS, 0.000781 µM | 87.9 | 93.5 | 95.2
RPMI 5 mM glucose + 10% dialyzed FBS, 0.00234 µM | 92.5 | 96.7 | 93.1
RPMI 5 mM glucose + 10% dialyzed FBS, 0.00702 µM | 84 | 93 | 83.3
RPMI 5 mM glucose + 10% dialyzed FBS, 0.0211 µM | 89.5 | 97.8 | 97.5
RPMI 5 mM glucose + 10% dialyzed FBS, 0.0632 µM | 90.9 | 97.2 | 99.6
RPMI 5 mM glucose + 10% dialyzed FBS, 0.19 µM | 83.1 | 88.8 | 88.9
RPMI 5 mM glucose + 10% dialyzed FBS, 0.569 µM | 83 | 90 | 102
RPMI 5 mM glucose + 10% dialyzed FBS, 1.71 µM | 94.9 | 86.2 | 91
RPMI 5 mM glucose + 10% dialyzed FBS, 5.12 µM | 102 | 87.8 | 87.5
RPMI 5 mM glucose + 10% dialyzed FBS, 15.4 µM | 82.8 | 87.3 | 93.7
RPMI 5 mM glucose + 10% dialyzed FBS, 46.1 µM | 81.6 | 91 | 73.2

AUC of viability dose-response curve
Details | NOMO1 [4] | P12-Ichikawa [5] | SEM cells [6]
HPLM + 10% dialyzed FBS | 427 | 433 | 442
RPMI 5 mM glucose + 10% FBS | 418 | 426 | 447
RPMI 5 mM glucose + 10% dialyzed FBS | 422 | 438 | 440

Source: the supplement of paper PMC11451515
